Assay results taken from the OPERA property sets (Mansouri et al. 2018).

Compound | logP
C#CCOc1cc(NC=NOCC)cc(F)c1OCC#C | 2.1
C#CCNC(=O)NCCCCC(NC(C)=O)C(=O)NCc1ccccc1 (stereo not drawn) | 0.23
COc1ccc2cc(CC(=O)OCC(=O)N3CCOCC3)ccc2c1 | 2.13
N#CN=C1NCCN1Cc1ccc(Cl)nc1 | 0.77
C#CCOc1cc(NC=NOCOC)cc(Cl)c1OCC#C | 2.2
COc1ccc2cc(CC(=O)OCC(=O)N3CCCC3)ccc2c1 | 2.71
Cc1ccc2c(c1)[n+]([O-])nc(N)[n+]2[O-] | 0.2
CCCCc1ccc(CO)cc1 | 3
CCc1ccc(CO)cc1 | 2.27
C=CCNC(=O)NCCCC(NC(C)=O)C(=O)NCc1ccccc1 (stereo not drawn) | 0.68
[O-][n+]1nc2ccccc2c2ccccc21 | 2.24
COCCNC(=O)Cn1ccnc1[N+](=O)[O-] | -0.77
CCOc1ccc(NC(=O)OC(C)CF)cc1OCC (stereo not drawn) | 2.59
C#CCC(C)OC(=O)Nc1ccc(OCC)c(OCC)c1 (stereo not drawn) | 2.86
CC(C)c1ccc(OC(=O)N(C)C)cc1 | 3.04
CCCCOc1ccccc1NC(=O)OC1CCCCC1CN(C)C (stereo not drawn) | 5.01
CCCCCCCOc1ccccc1NC(=O)OC1CCCCC1CN(C)C (stereo not drawn) | 6.3
CC(=O)NC(CCCNC(=O)N(C)N=O)C(=O)NCc1ccccc1 (stereo not drawn) | 0.98
O=C1NC(Cc2c[nH]c3ccccc23)C(=O)NC1Cc1ccc(O)cc1 (stereo not drawn) | 1.05
COc1cccc(OC)c1C(=O)Nc1nnc(-c2ccc(F)cc2)s1 | 3.5
NC(=O)Cc1ccc(-n2sc3ccccc3c2=O)cc1 | 1.72
Cc1ccc(CC2CCCC2(O)Cn2cncn2)cc1 (stereo not drawn) | 2.71
OC1(Cn2cncn2)CCCC1Cc1ccc(Cl)cc1 (stereo not drawn) | 3.11

Compound | logP
COc1ccc2cc(CC(=O)O)ccc2c1 | 2.82
CCCNC(=O)COC(=O)Cc1ccc2cc(OC)ccc2c1 | 3.1
C=CCC(C)OC(=O)Nc1ccc(OCC)c(OCC)c1 (stereo not drawn) | 3.37
CCC(C(=O)OC)c1ccc(-n2sc3ccccc3c2=O)cc1 (stereo not drawn) | 3.91
CN(C)C(=O)Oc1cccc([N+](=O)[O-])c1 | 1.56
CCN(CCO)C(=O)COC(=O)Cc1ccc2cc(OC)ccc2c1 | 1.98
CC(=O)c1cc[n+]([O-])cc1 | -0.93
COC(=O)c1ccc(-n2sc3ccccc3c2=O)cc1 | 3.49
COC1N(C2CC(N=[N+]=[N-])C(CO)O2)C(=O)NC(=O)C1(C)I (stereo not drawn) | 1.03
O=C1NC(=O)C(c2ccccc2)(c2ccccc2)N1S(=O)(=O)c1ccc(Cl)cc1 | 4.48
CCOc1ccc(NC(=O)OCCCl)cc1OCC | 2.62
CC(=O)NC(CCCCNC(=O)N(C)N=O)C(=O)NCc1ccccc1 (stereo not drawn) | 1.18
Cc1cc2cc3c(C)cc(=O)oc3c(C)c2o1 | 3.14
C=CCN1CCN(CC=C)C1=S | 1.63
CCOC(=O)C(C)c1ccc(-n2sc3ccccc3c2=O)cc1 (stereo not drawn) | 3.91
C=CCN(N=O)C(=O)NCCCCC(NC(C)=O)C(=O)NCc1ccccc1 (stereo not drawn) | 1.62
CN(C)C(=O)Oc1cccc(N(C)C)c1 | 1.93
CC(=O)Oc1cccc(C(=O)O)c1 | 1.49
[O-][n+]1ccc(Cl)cc1 | -0.44
CCCN(CCC)C(=O)COC(=O)Cc1ccc2cc(OC)ccc2c1 | 4.04
CCOC(=O)CCCOc1ccc(-n2sc3ccccc3c2=O)cc1 | 3.96
COP(=O)(CC(C)=O)OC | -0.86
Cc1cccc(O)c1C | 2.48

Compound | logP
COc1ccc2cc(CC(=O)OCC(=O)NC3CCCCC3)ccc2c1 | 3.99
C#CCOc1cc(NC=NOC)cc(Cl)c1OCC#C | 2.3
C#CCOc1ccc(NC=NOCC)cc1OCC#C | 1.9
COC(=O)C(C)c1ccc(-n2sc3ccccc3c2=O)cc1 (stereo not drawn) | 3.46
C#CCNC(=O)NCCCC(NC(C)=O)C(=O)NCc1ccccc1 (stereo not drawn) | -0.31
CN(C)C(=O)Oc1ccc(F)cc1 | 1.58
Cc1cc2c(cc1C)[n+]([O-])c(N)n[n+]2[O-] | 0.56
C#CCCOC(=O)Nc1ccc(OCC)c(OCC)c1 | 2.54
C#CCOc1cc(NC=NOCC)cc(Cl)c1OCC#C | 2.6
CCOC(=O)Cc1ccc(-n2sc3ccccc3c2=O)cc1 | 3.33
CN(C)C(=O)Oc1cccc(F)c1 | 1.75
C=CCN1CCCN(CC=C)C1=S | 2.08
CC1CCC2C(C)COC3OC4(C)CCC1C32OO4 (stereo not drawn) | 3.16
CC(C)=CCN1CC[C@@]2(C)c3cc(O)ccc3C[C@@H]1[C@@H]2C | 4.64
Cc1ccnc(N)c1 | 0.56
CN(C)C(=O)Oc1ccc(C#N)cc1 | 1.21
COc1ccc2cc(CC(=O)OCC(=O)N(C(C)C)C(C)C)ccc2c1 | 3.89
CC1(C)CC2=NOS3=C2C(=NO3)C1 | 1.9
OC1(Cn2cncn2)CCCC1Cc1ccccc1 (stereo not drawn) | 2.26
COc1cccc(OC)c1C(=O)Nc1nnc(-c2ccccc2)s1 | 3.5
CNC(=O)N(CCCCC(NC(C)=O)C(=O)NCc1ccccc1)Cc1ccccc1 (stereo not drawn) | 1.99
Cc1cc[n+]([O-])cc1 | -0.88
CCNC(=O)COC(=O)Cc1ccc2cc(OC)ccc2c1 | 2.65

Compound | logP
COc1cccc(OC)c1C(=O)Nc1nnc(-c2ccc(Cl)cc2)s1 | 3.96
C=CCNC(=O)N(CCC)CCCCC(NC(C)=O)C(=O)NCc1ccccc1 (stereo not drawn) | 1.75
CC(=O)NC(CCCCNC(=O)NCCCl)C(=O)NCc1ccccc1 (stereo not drawn) | 0.61
O=[N+]([O-])C=C1CCCN1Cc1ccc(Cl)nc1 | 0.68
CCCOc1ccccc1NC(=O)OC1CCCCC1CN(C)C (stereo not drawn) | 4.44
C=CC(CC)OC(=O)Nc1ccc(OCC)c(OCC)c1 (stereo not drawn) | 3.42
O=C1NC(=O)C(c2ccccc2)(c2ccccc2)N1S(=O)(=O)c1ccc([N+](=O)[O-])cc1 | 4.04
CCOc1ccccc1NC(=O)OC1CCCCC1CN(C)C (stereo not drawn) | 4.14
COc1cccc(OC)c1C(=O)Nc1nnc(-c2ccc(Br)cc2)s1 | 3.92
CC(C)(C)c1ccc(CC2CCCC2(O)Cn2cncn2)cc1 (stereo not drawn) | 3.97
CNC(=O)N(CCCC(NC(C)=O)C(=O)NCc1ccccc1)Cc1ccccc1 (stereo not drawn) | 1.86
Clc1ccc(-c2ccc(Cl)c(Cl)c2)cc1 | 5.9
CCOc1ccc(NC(=O)OCCBr)cc1OCC | 2.78
CCCC(=O)Oc1ccccc1C(=O)O | 2.2
CN(C)C(=O)Oc1cccc(C#N)c1 | 1.23
CCOc1ccc(-c2nnc(NC(=O)c3c(OC)cccc3OC)s2)cc1 | 3.75
O=S1CC2=NOS3=C2C(=NO3)C1 | -0.3
C=CCN(N=O)C(=O)N(CCCCC(NC(C)=O)C(=O)Nc1ccccc1)Cc1ccccc1 (stereo not drawn) | 2.7
C=CCN(N=O)C(=O)N(CCC)CCCC(NC(C)=O)C(=O)NCc1ccccc1 (stereo not drawn) | 2.16
CN(C)C(=O)Oc1cccc(Cl)c1 | 2.33
CCCN(CCCCC(NC(C)=O)C(=O)NCc1ccccc1)C(=O)NC (stereo not drawn) | 1.6
CCOc1ccc(NC(=O)OCCF)cc1OCC | 2.27
CCC(=O)Oc1ccccc1C(=O)O | 1.67

Compound | logP
CC(=O)Oc1ccc(C(=O)O)cc1 | 1.48
CCCCCCCCCCn1c(N)c(N)c(=O)[nH]c1=O | 3.04
CCCN(CCCC(NC(C)=O)C(=O)NCc1ccccc1)C(=O)N(C)N=O (stereo not drawn) | 1.61
C#CCON=CNc1cc(Cl)c(OCC#C)c(OCC#C)c1 | 2.3
CC(=O)Nc1n[n+]([O-])c2cc(C)ccc2[n+]1[O-] | -0.4
CCSc1nnc(C(C)(C)C)c(=O)n1N | 2.08
CCCN(CCCC(NC(C)=O)C(=O)NCc1ccccc1)C(=O)NC (stereo not drawn) | 1.47
COc1n[n+]([O-])c2ccccc2[n+]1[O-] | -0.3
c1ccc(CC2CC3=NOS4=C3C(=NO4)C2)cc1 | 2.8
CC(=O)NC(CCCNC(=O)NCCCl)C(=O)NCc1ccccc1 (stereo not drawn) | 0.34
CCCCCCn1c(N)c(N)c(=O)[nH]c1=O | 1.01
COc1ccc2cc(CC(=O)OCC(N)=O)ccc2c1 | 1.88
C=CCN(N=O)C(=O)NCCCC(NC(C)=O)C(=O)NCc1ccccc1 (stereo not drawn) | 1.3
CCCN(CCCCC(NC(C)=O)C(=O)NCc1ccccc1)C(=O)N(C)N=O (stereo not drawn) | 1.73
C=CCNC(=O)NCCCCC(NC(C)=O)C(=O)NCc1ccccc1 (stereo not drawn) | 0.76
CCCc1ccc(CO)cc1 | 2.67
ClC1=C(Cl)C2C(C1Cl)C1(Cl)C(Cl)C(Cl)C2(Cl)C1(Cl)Cl (stereo not drawn) | 6.08
CCOc1cc[n+]([O-])cc1 | -0.53
COc1ccc2cc(CC(=O)OCC(=O)N(C)C)ccc2c1 | 2.23
CC(=O)CC(=O)Nc1n[n+]([O-])c2ccccc2[n+]1[O-] | -1.4
COC(=O)Cc1ccc(-n2sc3ccccc3c2=O)cc1 | 2.83
CCC(C(N)=O)c1ccc(-n2sc3ccccc3c2=O)cc1 (stereo not drawn) | 2.58
COC1N(C2CC(N=[N+]=[N-])C(CO)O2)C(=O)NC(=O)C1(C)Br (stereo not drawn) | 1.12

Compound | logP
CCOC(=O)COc1ccc(-n2sc3ccccc3c2=O)cc1 | 2.96
C1SCC2=NOS3=C2C1=NO3 | 1.2
COc1ccc2cc(CC(=O)OCC(=O)NC(C)C)ccc2c1 | 2.89
CC(=O)c1ccc(OC(=O)N(C)C)cc1 | 1.27
COc1ccc2cc(CC(=O)OCC(=O)NC(C)(C)C)ccc2c1 | 3.6
CC12CCC(CC1=O)C2(C)C (stereo not drawn) | 2.38
C#CCON=CNc1cc(F)c(OCC#C)c(OCC#C)c1 | 1.8
Nc1n[n+]([O-])c2ccc(Cl)cc2[n+]1[O-] | 0.41
CCc1cccc(OC(=O)N(C)C)c1 | 2.47
COc1ccc2c(c1OC)-c1ccc(OC)c(=O)cc1C(NC(C)=O)CC2 (stereo not drawn) | 1.02
C#CC(CC)OC(=O)Nc1ccc(OCC)c(OCC)c1 (stereo not drawn) | 3.07
C#CCOc1cc(NC=NOCOC)cc(F)c1OCC#C | 1.7
COc1ccc2cc(CC(=O)OCC(=O)N(CCO)CCO)ccc2c1 | 1.41
CC(=O)NC(CCCCN(Cc1ccccc1)C(=O)N(C)N=O)C(=O)NCc1ccccc1 (stereo not drawn) | 2.12
Cn1c(N)c(N)c(=O)[nH]c1=O | -1.4
CCN(CC)C(=O)COC(=O)Cc1ccc2cc(OC)ccc2c1 | 3.05
CCC1CCC(Cc2ccc(Cl)cc2)C1(O)Cn1cncn1 (stereo not drawn) | 3.71
CCOC(=O)C(C)Oc1ccc(-n2sc3ccccc3c2=O)cc1 (stereo not drawn) | 3.89
C#CCOc1cc(NC=NOC)cc(F)c1OCC#C | 1.8
CCCCCOc1ccccc1NC(=O)OC1CCCCC1CN(C)C (stereo not drawn) | 5.46
CC(=O)Nc1n[n+]([O-])c2ccccc2[n+]1[O-] | -0.6
CCCc1ccc(OC(=O)N(C)C)cc1 | 3.15
COc1ccc2cc(CC(=O)OCC(=O)N(C)CCO)ccc2c1 | 1.58
